Source: patent publication US20070259948A1, “Compounds with antifungal properties and process thereof” (priority 2006, published 2007)
≈ marks a conversion by molar mass, not a printed value.

Tests used:
Assay in all cases: Antifungal susceptibility testing (minimum inhibitory concentration), soyabean casein digest broth
Type in all cases: cell-based
[1] = tested on: A. niger; settings: Aspergillus niger; end points after 48 hours, visually / spectrophotometer; NI till x = no inhibition up to x; read-out: Activity against organisms In μg/ml, A. niger (minimum inhibitory concentration)
Description: (§1) In vitro evaluation of antifungal activity can be performed by determining the minimum inhibitory concentration. Anti-fungal susceptibility testing of these anti-fungal compounds was done by conventional method using soyabean casein digest broth. Known anti-fungal agents like Fluconazole and amphotericin-B were used as positive control. End points were determined after 48 hours visually and by using Spectrophotometer wherever necessary. Different dilutions were tried and the set of experiments.

[2] = tested on: C. albicans; settings: Candida albicans; end points after 48 hours, visually / spectrophotometer; NI till x = no inhibition up to x; read-out: Activity against organisms In μg/ml, C. albicans (minimum inhibitory concentration)
Description: as §1

[3] = tested on: F. proliferatum; settings: Fusarium proliferatum; end points after 48 hours, visually / spectrophotometer; NI till x = no inhibition up to x; read-out: Activity against organisms In μg/ml, F. proliferatum (minimum inhibitory concentration)
Description: as §1

MIC [1] [µg/mL]	MIC [2] [µg/mL]	MIC [3] [µg/mL]	Structure (SMILES)
2 (≈ 5.51 µM)	4 (≈ 11 µM)	1 (≈ 2.75 µM)	O=C1OC(COC(=O)c2ccccc2)C=C1c1ccc(Cl)c(Cl)c1 (stereo not drawn) [1AA, 3,4-dichlorophenyl-5-benzoyloxymethyl-2H,5H-furan-2-one]
2 (≈ 6.08 µM)	2 (≈ 6.08 µM)	0.5 (≈ 1.52 µM)	O=C1OC(COC(=O)c2ccccc2)C=C1c1cccc(Cl)c1 (stereo not drawn) [1AB, 3-chlorophenyl-5-benzoyloxymethyl-2H,5H-furan-2-one]
4 (≈ 10.7 µM)	2 (≈ 5.36 µM)	0.5 (≈ 1.34 µM)	O=C1OC(COC(=O)c2ccccc2)C=C1c1cccc(Br)c1 (stereo not drawn) [1AC, 3-bromophenyl-5-benzoyloxymethyl-2H,5H-furan-2-one]
1 to 2 (≈ 3.2 to 6.4 µM)	1 to 2 (≈ 3.2 to 6.4 µM)	1 to 2 (≈ 3.2 to 6.4 µM)	O=C1OC(COC(=O)c2ccccc2)C=C1c1cccc(F)c1 (stereo not drawn) [1AD, 3-fluorophenyl-5-benzoyloxymethyl-2H,5H-furan-2-one]
> 2	> 2	> 2	COc1ccc(C2=CC(COC(=O)c3ccccc3)OC2=O)cc1Br (stereo not drawn) [1AE, 3-bromo-4-methoxyphenyl-5-benzoyloxymethyl-2H,5H-furan-2-one]
4 (≈ 12.9 µM)	2 (≈ 6.43 µM)	2 (≈ 6.43 µM)	CC(=O)OCC1C=C(c2cccc(Br)c2)C(=O)O1 (stereo not drawn) [1BC, 3-bromophenyl-5-acetxymethyl-2H,5H-furan-2-one]
1 to 2 (≈ 4 to 7.99 µM)	1 to 2 (≈ 4 to 7.99 µM)	1 to 2 (≈ 4 to 7.99 µM)	CC(=O)OCC1C=C(c2cccc(F)c2)C(=O)O1 (stereo not drawn) [1BD, 3-fluorophenyl-5-acetxymethyl-2H,5H-furan-2-one]
1 (≈ 3.06 µM)	2 (≈ 6.11 µM)	1 (≈ 3.06 µM)	C=CCC(=O)OCC1C=C(c2ccc(Cl)c(Cl)c2)C(=O)O1 (stereo not drawn) [1CA, 3,4-dichlorophenyl-5-allyloyloxymethyl-2H,5H-furan-2-one]
8 (≈ 27.3 µM)	4 (≈ 13.7 µM)	2 (≈ 6.83 µM)	C=CCC(=O)OCC1C=C(c2cccc(Cl)c2)C(=O)O1 (stereo not drawn) [1CB, 3-chlorophenyl-5-allyloyloxymethyl-2H,5H-furan-2-one]
8 (≈ 23.7 µM)	4 (≈ 11.9 µM)	2 (≈ 5.93 µM)	C=CCC(=O)OCC1C=C(c2cccc(Br)c2)C(=O)O1 (stereo not drawn) [1CC, 3-bromophenyl-5-allyloyloxymethyl-2H,5H-furan-2-one]
> 8	2 to 4 (≈ 5.45 to 10.9 µM)	> 8	C=CCC(=O)OCC1C=C(c2ccc(OC)c(Br)c2)C(=O)O1 (stereo not drawn) [1CE, 3-bromo-4-methoxyphenyl-5-allyloyloxymethyl-2H,5H-furan-2-one]
1 (≈ 2.71 µM)	2 (≈ 5.42 µM)	2 (≈ 5.42 µM)	O=C1OC(COC(=O)c2cccs2)C=C1c1ccc(Cl)c(Cl)c1 (stereo not drawn) [1DA, 4-(3,4-dichlorophenyl)-5-oxo-2,5-dihydrofuran-2-ylmethyl thiophene-2-carboxylate]
4 (≈ 11.9 µM)	2 (≈ 5.97 µM)	1 (≈ 2.99 µM)	O=C1OC(COC(=O)c2cccs2)C=C1c1cccc(Cl)c1 (stereo not drawn) [1DB, 4-(3-chlorophenyl)-5-oxo-2,5-dihydrofuran-2-ylmethyl thiophene-2-carboxylate]
8 (≈ 21.1 µM)	2 (≈ 5.27 µM)	2 (≈ 5.27 µM)	O=C1OC(COC(=O)c2cccs2)C=C1c1cccc(Br)c1 (stereo not drawn) [1DC, 4-(3-bromophenyl)-5-oxo-2,5-dihydrofuran-2-ylmethyl thiophene-2-carboxylate]
> 2	> 2	> 2	COc1ccc(C2=CC(COC(=O)c3cccs3)OC2=O)cc1Br (stereo not drawn) [1DE, 4-(3-bromo-4-methoxyphenyl)-5-oxo-2,5-dihydrofuran-2-ylmethyl thiophene-2-carboxylate]
1 (≈ 2.71 µM)	2 (≈ 5.42 µM)	2 (≈ 5.42 µM)	O=C1OC(COC(=O)c2ccsc2)C=C1c1ccc(Cl)c(Cl)c1 (stereo not drawn) [1EA, 4-(3,4-dichlorophenyl)-5-oxo-2,5-dihydrofuran-2-ylmethyl thiophene-3-carboxylate]
4 (≈ 11.9 µM)	4 (≈ 11.9 µM)	2 (≈ 5.97 µM)	O=C1OC(COC(=O)c2ccsc2)C=C1c1cccc(Cl)c1 (stereo not drawn) [1EB, 4-(3-chlorophenyl)-5-oxo-2,5-dihydrofuran-2-ylmethyl thiophene-3-carboxylate]
2 (≈ 5.27 µM)	2 (≈ 5.27 µM)	1 (≈ 2.64 µM)	O=C1OC(COC(=O)c2ccsc2)C=C1c1cccc(Br)c1 (stereo not drawn) [1EC, 4-(3-bromophenyl)-5-oxo-2,5-dihydrofuran-2-ylmethyl thiophene-3-carboxylate]
> 2	> 2	> 2	COc1ccc(C2=CC(COC(=O)c3ccsc3)OC2=O)cc1Br (stereo not drawn) [1EE, 4-(3-bromo-4-methoxyphenyl)-5-oxo-2,5-dihydrofuran-2-ylmethyl thiophene-3-carboxylate]

MIC [1] [µg/mL]	MIC [2] [µg/mL]	MIC [3] [µg/mL]	Structure (SMILES)
> 4	> 4	> 4	O=C1OC(COC(=O)c2cc(Br)c(Br)s2)C=C1c1ccc(Cl)c(Cl)c1 (stereo not drawn) [1FA, 4-(3,4-dichlorophenyl)-5-oxo-2,5-dihydrofuran-2-ylmethyl 4,5-dibromothiophene-2-carboxylate]
2 to 4 (≈ 4.06 to 8.12 µM)	1 to 2 (≈ 2.03 to 4.06 µM)	1 to 2 (≈ 2.03 to 4.06 µM)	O=C1OC(COC(=O)c2cc(Br)c(Br)s2)C=C1c1cccc(Cl)c1 (stereo not drawn) [1FB, 4-(3-chlorophenyl)-5-oxo-2,5-dihydrofuran-2-ylmethyl 4,5-dibromothiophene-2-carboxylate]
2 to 4 (≈ 3.72 to 7.45 µM)	1 to 2 (≈ 1.86 to 3.72 µM)	1 to 2 (≈ 1.86 to 3.72 µM)	O=C1OC(COC(=O)c2cc(Br)c(Br)s2)C=C1c1cccc(Br)c1 (stereo not drawn) [1FC, 4-(3-bromophenyl)-5-oxo-2,5-dihydrofuran-2-ylmethyl 4,5-dibromothiophene-2-carboxylate]
2 (≈ 5.72 µM)	4 (≈ 11.4 µM)	2 (≈ 5.72 µM)	O=C(CCCl)OCC1C=C(c2ccc(Cl)c(Cl)c2)C(=O)O1 (stereo not drawn) [1GA, 4-(3,4-dichlorophenyl)-5-oxo-2,5-dihydrofuran-2-ylmethyl 3-chloropropionate]
2 (≈ 6.35 µM)	2 (≈ 6.35 µM)	4 (≈ 12.7 µM)	O=C(CCCl)OCC1C=C(c2cccc(Cl)c2)C(=O)O1 (stereo not drawn) [1GB, 4-(3-chlorophenyl)-5-oxo-2,5-dihydrofuran-2-ylmethyl 3-chloropropionate]
4 (≈ 11.1 µM)	2 (≈ 5.56 µM)	2 (≈ 5.56 µM)	O=C(CCCl)OCC1C=C(c2cccc(Br)c2)C(=O)O1 (stereo not drawn) [1GC, 4-(3-bromophenyl)-5-oxo-2,5-dihydrofuran-2-ylmethyl 3-chloropropionate]
4 to 8 (≈ 10.3 to 20.5 µM)	4 to 8 (≈ 10.3 to 20.5 µM)	8 to 16 (≈ 20.5 to 41.1 µM)	COc1ccc(C2=CC(COC(=O)CCCl)OC2=O)cc1Br (stereo not drawn) [1GE, 4-(3-bromo-4-methoxyphenyl)-5-oxo-2,5-dihydrofuran-2-ylmethyl 3-chloropropionate]
1 to 2 (≈ 2.75 to 5.5 µM)	1 to 2 (≈ 2.75 to 5.5 µM)	1 to 2 (≈ 2.75 to 5.5 µM)	O=C(CCCCl)OCC1C=C(c2ccc(Cl)c(Cl)c2)C(=O)O1 (stereo not drawn) [1HA, 4-(3,4-dichlorophenyl)-5-oxo-2,5-dihydrofuran-2-ylmethyl 4-chlorobutyrate]
2 to 4 (≈ 6.08 to 12.2 µM)	1 to 2 (≈ 3.04 to 6.08 µM)	1 to 2 (≈ 3.04 to 6.08 µM)	O=C(CCCCl)OCC1C=C(c2cccc(Cl)c2)C(=O)O1 (stereo not drawn) [1HB, 4-(3-chlorophenyl)-5-oxo-2,5-dihydrofuran-2-ylmethyl 4-chlorobutyrate]
4 to 8 (≈ 10.7 to 21.4 µM)	1 to 2 (≈ 2.68 to 5.35 µM)	1 to 2 (≈ 2.68 to 5.35 µM)	O=C(CCCCl)OCC1C=C(c2cccc(Br)c2)C(=O)O1 (stereo not drawn) [1HC, 4-(3-bromophenyl)-5-oxo-2,5-dihydrofuran-2-ylmethyl 4-chlorobutyrate]
1 to 2 (≈ 3.2 to 6.4 µM)	1 to 2 (≈ 3.2 to 6.4 µM)	1 to 2 (≈ 3.2 to 6.4 µM)	O=C(CCCCl)OCC1C=C(c2cccc(F)c2)C(=O)O1 (stereo not drawn) [1HD, 4-(3-fluorophenyl)-5-oxo-2,5-dihydrofuran-2-ylmethyl 4-chlorobutyrate]
> 4	> 4	> 4	COc1ccc(C2=CC(COC(=O)CCCCl)OC2=O)cc1Br (stereo not drawn) [1HE, 4-(3-bromo-4-methoxyphenyl)-5-oxo-2,5-dihydrofuran-2-ylmethyl 4-chlorobutyrate]
> 8	> 8	> 8	COc1ccc(C2=CC(COC(=O)CCCCCl)OC2=O)cc1Br (stereo not drawn) [1IE, 4-(3-bromo-4-methoxyphenyl)-5-oxo-2,5-dihydrofuran-2-ylmethyl 5-chlorovalerate]
> 2	> 2	> 2	O=C1OC(COC(=O)c2cccc(I)c2)C=C1c1cccc(Cl)c1 (stereo not drawn) [1JB, 4-(3-chlorophenyl)-5-oxo-2,5-dihydrofuran-2-ylmethyl 3-iodobenzoate]
> 4	2 to 4 (≈ 4.01 to 8.01 µM)	> 4	O=C1OC(COC(=O)c2cccc(I)c2)C=C1c1cccc(Br)c1 (stereo not drawn) [1JC, 4-(3-bromophenyl)-5-oxo-2,5-dihydrofuran-2-ylmethyl 3-iodobenzoate]
> 2	> 2	> 2	COc1ccc(C2=CC(COC(=O)c3cccc(I)c3)OC2=O)cc1Br (stereo not drawn) [1JE, 4-(3-bromo-4-methoxyphenyl)-5-oxo-2,5-dihydrofuran-2-ylmethyl 3-iodobenzoate]
1 to 2 (≈ 3.15 to 6.29 µM)	0.5 to 1 (≈ 1.57 to 3.15 µM)	1 to 2 (≈ 3.15 to 6.29 µM)	O=C1OC(COC(=O)c2ccc[nH]2)C=C1c1cccc(Cl)c1 (stereo not drawn) [1KB, 4-(3-chlorophenyl)-5-oxo-2,5-dihydrofuran-2-ylmethyl pyrrole-2-carboxylate]
2 to 4 (≈ 5.52 to 11 µM)	1 to 2 (≈ 2.76 to 5.52 µM)	1 to 2 (≈ 2.76 to 5.52 µM)	O=C1OC(COC(=O)c2ccc[nH]2)C=C1c1cccc(Br)c1 (stereo not drawn) [1KC, 4-(3-bromophenyl)-5-oxo-2,5-dihydrofuran-2-ylmethyl pyrrole-2-carboxylate]

Structure (SMILES)	MIC [1] [µg/mL]	MIC [2] [µg/mL]	MIC [3] [µg/mL]
COc1ccc(C2=CC(COC(C)=O)OC2=O)cc1Br (stereo not drawn) [1BE, 3-bromo-4-methoxyphenyl-5-acetoxymethyl-2H,5H-furan-2-one]	4 to 8 (≈ 11.7 to 23.4 µM)	2 to 4 (≈ 5.86 to 11.7 µM)	8 to 16 (≈ 23.4 to 46.9 µM)
